From patent publication US20240376062A1, “COMPOUNDS FOR THE TREATMENT OF ALZHEIMER’S DISEASE” (BOARD OF TRUSTEES OF MICHIGAN STATE UNIVERSITY, priority 2021, published 2024)
Entries after “also recorded” stand apart in the source; their conditions may differ.

Key:
p-tau [1] = molecular target: T1, p-tau (Homo sapiens, UniProt P10636); test: Thioflavin-S (ThS) fluorescence assay of p-tau fibril formation; format: biochemical; settings: compound 100 μM, about 15x molar excess to p-tau
T1 construct: made in house
T1 sequence (P10636 1-412 isoform P10636-7): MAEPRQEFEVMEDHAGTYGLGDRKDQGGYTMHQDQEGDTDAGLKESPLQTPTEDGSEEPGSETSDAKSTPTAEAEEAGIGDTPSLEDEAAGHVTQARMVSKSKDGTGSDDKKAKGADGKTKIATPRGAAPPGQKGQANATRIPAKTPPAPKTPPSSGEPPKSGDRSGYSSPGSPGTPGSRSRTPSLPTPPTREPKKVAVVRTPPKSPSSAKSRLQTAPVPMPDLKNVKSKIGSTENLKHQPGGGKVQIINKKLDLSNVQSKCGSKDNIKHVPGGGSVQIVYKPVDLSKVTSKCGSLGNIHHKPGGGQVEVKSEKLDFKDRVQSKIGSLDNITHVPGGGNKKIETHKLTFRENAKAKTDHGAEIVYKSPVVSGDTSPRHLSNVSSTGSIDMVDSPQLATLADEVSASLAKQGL
Procedure: p-Tau from the stock solution of 1 mM was added to 20 mM Tris buffer (pH 7.4) with 1 mM DTT and transferred to a black microplate 384 well plate with flat bottom and medium binding (greiner bio-one, ref 784076). Each well contained a final volume of 10 μL with a peptide final concentration of 6 μM. Experiments in the presence of p-tau were initiated by adding a solution of ThS at a final concentration of 20 μM with different compounds. Final compound concentrations ranged from 25 to 100 μM. The background sample consisted of 0.1% DMSO in buffer without p-tau. The plate was sealed and read with the excitation and emission wavelengths set at 440 and 490 nm, respectively, with a Synergy HT multi-mode microplate reader (BioTek, Winooski, VT). Measurements were taken at 37° C. every 10 min for 16 hours. Samples were measured in three replicates and the experiments were repeated three times using different p-tau stock solutions. For each time point, arbitrary units of fluorescence were calculated from the mean values normalized against the maximum value in each completed assay. Arbitrarily, the maximum value (100%) for the fluorescence intensity was established for p-tau with 0.1% DMSO.
The structure of three newly synthesized small molecules representing the sulfonamide (JF-19-73), sulfonylurea (JF(Tr)-20-58), and urea (JF-19-43, JF(TT)-19-5) series are presented in FIG. 1. These molecules were assessed for their anti-aggregation and cytoprotection effects using biophysical methods and survival assays on human neuroblastoma SH-SY5Y cells, respectively. […] First, the formation of fibrils was monitored by measuring the fluorescence intensity of the dye thioflavin-S (ThS) with the excitation and emission wavelengths set at 440 and 490 nm. The fluorescent dye ThS specifically binds to the cross β-sheet structure of protein fibrils, providing a strong fluorescence emission.^[14] Since the fluorescence emission increases with fibrils formation, the kinetic process of fibrillization is routinely assessed using ThS fluorescence as the primary assays to screen for the candidate inhibitors. […]

p-tau [2] = molecular target: T1, p-tau; test: Photo-induced cross-linking (PICUP) assay of p-tau oligomerization; format: biochemical; settings: for dose dependence of inhibition of p-tau oligomerization: dose response experiments, FIG. 3 lower panel (B); for inhibition of p-tau oligomer formation (cross-linking): p-tau 6 μM preincubated with compound 50 μM for 24 hours
Procedure: p-Tau was diluted in 10 mM phosphate buffer (pH 7.4) at a final concentration of 10 μM and preincubated with different compounds for 24 h prior cross-linking. Different compounds were added to the p-tau solution at a final concentration of 12.5, 25, or 50 μM. The control consisted of samples without Ru(bpy), light exposition, and without compound. The reaction buffer consisted of 300 μM Ru(bpy), 6 mM ammonium persulfate. Prior light exposure, p-tau was diluted to a final concentration of 6 μM. Cross-linking was induced by irradiation, for 3 s, at a final volume of 20 μL, with a 53 W (120 V) incandescent lamp installed in a homemade dark-box. After irradiation, 8.3 μL of Lammeli loading buffer was immediately added to the solution, followed by incubation at 95° C. for 10 min. The cross-linked samples were separated on a 10% SDS-Page gel and visualized by Coomassie blue staining.
(§1) To examine how JF-19-73 affected p-tau fibrillization, two approaches were taken. Firstly, we used the Photo-Induced Cross-linking of Unmodified Proteins (PICUP) assay to investigate p-tau oligomerization under the influence of JF19-73 (FIG. 3). After being subjected to short light exposure, p-tau was cross-linked and resolved as a smear of higher molecular weight (lane 3, FIG. 3).^[6c] […] We further perform transmission electron microscopy to visualize the extent and morphology of p-tau fibrils.

SH-SY5Y cells = test: Cell viability assay, protection from aggregated p-tau and compound toxicity; format: cell-based, human; settings: for protection of SH-SY5Y cells against p-tau cytotoxicity: 0.8 μM p-tau, compound 8 μM (molar ratio 1:10)
Procedure: Cells were maintained in a 37° C., 5% CO2 incubator, in exponential growth, for the duration of experimentation. For this assay, cells were seeded in 96-well microtiter plates at a density of 5×10^3 SH-SY5Y cells per well for 24 h. Compounds freshly solubilized in DMSO were diluted in culture medium and aliquots containing sequential dilution of drugs were added subsequently after stimulation with 2 μM of p-tau. p-Tau was dissolved and incubated in 10 mM PBS (pH 7.4, 25° C.) 24 h before addition to cells. Compounds were tested at 2, 4, and 8 μM and DMSO concentration was maintained at 0.1% to avoid growth inhibition. […] Plates were incubated for 24 h in the presence of compounds and p-Tau. Cell-based assays were performed as previously described ((Liu et al, 2020, Sci. Rep. Hyperphosphorylated tau aggregation and cytotoxicity modulators screen identified prescription drugs linked to Alzheimer's disease and cognitive functions. Liu M, Dexheimer T, Sui D, Hovde S, Deng X, Kwok R, Bochar D A, Kuo M H. Sci Rep. 2020 Oct. 6; 10(1):16551. doi: 10.1038/s41598-020-73680-2.). The cell viability was calculated from fluorescence measured with a Synergy HT multi-mode microplate reader (BioTek, Winooski, VT). The data from experiments conducted in triplicate were corrected for the background fluorescence of the medium and was expressed as the mean percentage of fluorescence obtained for control DMSO-treated cells. The growth inhibition percentage was calculated with reference to DMSO-treated cells for each compound concentration. The results were obtained from at least three separated experiments. The cell viability assay was considered valid when the variability among data for a given set of conditions, within the same experiment, was less than 10% with respect to the mean value. All values represent means±SD (n=3).
Cell viability assays were performed using SH-SY5Y cells to evaluate the potential of the molecules representing the sulfonamide, sulfonylurea, and urea series to protect cells from aggregated p-tau (FIG. 5). The survival rate was assessed after treatment with 0.8 μM p-tau in the absence or the presence of JF-19-73, JF-19-43 (urea), JF(TT)-20-58 at 8 μM. […] It has been reported previously (Liu et al, 2020, Sci. Rep. Hyperphosphorylated tau aggregation and cytotoxicity modulators screen identified prescription drugs linked to Alzheimer's disease and cognitive functions. Liu M, Dexheimer T, Sui D, Hovde S, Deng X, Kwok R, Bochar D A, Kuo M H. Sci Rep. 2020 Oct. 6; 10(1):16551. doi: 10.1038/s41598-020-73680-2.) that not all effective p-tau aggregation inhibitors, as indicated by significant reductions in ThSmax, were cytoprotective.

[3] = Solubility in aqueous phase; format: physicochemical
p-tau [4] = molecular target: T1, p-tau; test: Transmission electron microscopy of p-tau fibrils; format: biochemical; settings: p-tau 20 μM, compound 100 μM, 24 hours, vs. DMSO
Procedure: […] A volume of 10 μL was applied on a 400-mesh Formvar-carbon-coated cooper grid (Electron Microscopy Sciences, Hatfield, PA) to confirm the presence or the absence of fibrils. The grids were incubated for 1 minute and washed three times with distilled water. They were carefully air-dried and incubated for 1 minute in a fresh solution of 1% uranyl acetate. Samples were air-dried and observed using a transmission microscope (JEOL 1400 Flash, Japan). Pictures were acquired at an accelerating voltage of 100 kV and magnification of 40 and 80 k.
as §1

With `O=C(Nc1ccc(Cl)cc1)Nc1ccc2c(c1)Cc1ccccc1-2` [JF(NBMI)-20-45] as the compound, how does the “inhibition of p-tau fibril formation (ThS fluorescence intensity, ThSmax)” value (p-tau [1]) read?
Its value is “not a potent inhibitor of p-tau aggregation”.

For `O=C(Nc1ccccc1)Nc1ccc2c(c1)Cc1ccccc1-2` [JF(TT)-19-5], which “dose dependence of inhibition of p-tau oligomerization” value (p-tau [2]) is on record?
The value was “negative control”.

And the “inhibition of p-tau oligomer formation (cross-linking)” value (p-tau [2])?
Its value is “had no effect”.

For `O=C(Nc1ccc2c(c1)Cc1ccccc1-2)NS(=O)(=O)c1ccc(Cl)cc1` [JF(TT)-20-58], which “inhibition of p-tau fibril formation (ThS fluorescence intensity, ThSmax)” value (p-tau [1]) is on record?
The value was “not a potent inhibitor of p-tau aggregation”.

And the “inhibition of p-tau oligomer formation (cross-linking)” value (p-tau [2])?
Its value is “high molecular weight p-tau oligomers”.

And the “inhibition of p-tau oligomer formation (cross-linking)” value (p-tau [2]; listed as JF(T)-19-58)?
The value was “had no effect”.

And the “protection of SH-SY5Y cells against p-tau cytotoxicity” value (SH-SY5Y cells)?
The value was “negative controls”.

Which results are given for `CCNC(=O)Nc1ccc2c(c1)Cc1ccccc1-2` [JF-19-43]?
inhibition of p-tau oligomer formation (cross-linking) (p-tau [2]): had no effect; inhibition of p-tau oligomer formation (cross-linking) (p-tau [2]; listed as JF19-43): high molecular weight p-tau oligomers; protection of SH-SY5Y cells against p-tau cytotoxicity (SH-SY5Y cells): negative controls

Which results are given for `O=S(=O)(Nc1ccc2c(c1)Cc1ccccc1-2)c1ccc(Cl)cc1` [JF-19-73]?
solubility (S) in aqueous phase [3]: > 100 µM; p-tau fibril formation by TEM (p-tau [4]): less fibrils; also recorded: clear effects on p-tau fibrillization; inhibition of p-tau fibril formation (ThS fluorescence intensity, ThSmax) (p-tau [1]): inhibits fibril; also recorded: most potent to inhibit fibril formation; dose dependence of inhibition of p-tau oligomerization (p-tau [2]): dose-dependent manner; inhibition of p-tau oligomer formation (cross-linking) (p-tau [2]): inhibits fibril (ThSmax) and oligomer (Oligo. Inh.) formation; also recorded: stopped formation of p-tau oligomers; also recorded: effectively prevented this crosslinking; protection of SH-SY5Y cells against p-tau cytotoxicity (SH-SY5Y cells): protects SH-SY5Y cells against p-tau; toxicity of compound to SH-SY5Y cells (SH-SY5Y cells; compound 8 μM without p-tau): non-toxic to cells; protection against p-tau cytotoxicity, dose dependence (SH-SY5Y cells; compound 2, 4 and 8 μM): protected cell in a dose-dependent manner
